Structures can show the parent of a compound that is named as a salt.
These molecules were tested against T1, Acetylcholinesterase (Rattus norvegicus, UniProt P37136) (assay: Acetylcholinesterase inhibiting activity using (acetyl-[3H])-acetylcholine, S1 fraction of rat cerebral cortex homogenate). Conditions: rat cerebral cortex homogenate S1 fraction; 30 minutes of incubation; read-out: Acetylcholinesterase inhibiting activity IC50.
T1 construct: the S1 fraction of a male Wistar rat cerebral cortex homogenate was used as a cholinesterase source; from tissue; host or cells: male Wistar rat cerebral cortex homogenate, S1 fraction
T1 sequence (P37136 32-614): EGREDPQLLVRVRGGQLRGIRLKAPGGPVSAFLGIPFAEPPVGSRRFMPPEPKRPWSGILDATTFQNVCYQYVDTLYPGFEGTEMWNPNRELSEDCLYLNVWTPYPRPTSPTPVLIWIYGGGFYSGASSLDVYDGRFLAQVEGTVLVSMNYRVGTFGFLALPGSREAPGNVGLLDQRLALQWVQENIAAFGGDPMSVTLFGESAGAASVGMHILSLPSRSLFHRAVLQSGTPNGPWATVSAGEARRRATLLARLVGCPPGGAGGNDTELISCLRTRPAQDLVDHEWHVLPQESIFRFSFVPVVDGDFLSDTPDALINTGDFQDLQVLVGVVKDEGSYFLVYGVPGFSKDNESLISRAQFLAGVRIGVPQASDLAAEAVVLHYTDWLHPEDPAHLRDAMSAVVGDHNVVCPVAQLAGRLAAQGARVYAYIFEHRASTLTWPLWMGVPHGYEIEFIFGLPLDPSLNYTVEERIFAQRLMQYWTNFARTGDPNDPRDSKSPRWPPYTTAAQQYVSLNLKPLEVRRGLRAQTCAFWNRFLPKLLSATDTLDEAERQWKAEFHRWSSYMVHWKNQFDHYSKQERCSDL
Format: biochemical, male Wistar rat
Protocol: The compounds according to the invention were examined for cholinesterase inhibiting activity using (acetyl-[^3 H])-acetylcholine. Thus, the S1 fraction of a male Wistar rat cerebral cortex homogenate was used as a cholinesterase source, and (acetyl-[^3 H])-acetylcholine (as substrate) and each test compound according to the invention were added and, after 30 minutes of incubation, the reaction was terminated. A toluene type scintillator was added, and the mixture was shaken, whereby the reaction product [^3 H]-acetic acid was transferred to the toluene layer. The cholinesterase activity was determined by counting said [^3 H]-acetic acid with a liquid scintillation counter.
The cholinesterase inhibiting activity of each test compound was expressed in terms of 50% inhibitory concentration (IC50).
Work on CN(CCCCN1C(=O)c2ccc([N+](=O)[O-])cc2C1=O)Cc1ccccc1 [Compound 1, 2-[4-(N-Benzyl-N-methyl)aminobutyl]-5-nitro-1H--isoindole-1,3(2H)-dione hydrochloride] yielded an IC50 of 9.5 µM.
Molecule CN(CCCCCN1C(=O)c2ccc([N+](=O)[O-])cc2C1=O)Cc1ccccc1 [Compound 2-2] has an IC50 of 1.4 µM.
CCN(CCCCN1C(=O)c2ccc([N+](=O)[O-])cc2C1=O)Cc1ccccc1 [Compound 2-3] was tested, and the IC50 was 0.25 µM.
In the case of O=C1c2ccc([N+](=O)[O-])cc2C(=O)N1CCCCN(CCO)Cc1ccccc1 [Compound 2-4], the IC50 is reported as 1.5 µM.
O=C1c2ccc([N+](=O)[O-])cc2C(=O)N1CCCCN1CCc2ccccc2C1 [Compound 2-6] gave an IC50 of 18 µM.
Work on CC(C)N(CCCCN1C(=O)c2ccc([N+](=O)[O-])cc2C1=O)Cc1ccccc1 [Compound 2-7] yielded an IC50 of 0.49 µM.
For CN(CCCCCCN1C(=O)c2ccc([N+](=O)[O-])cc2C1=O)Cc1ccccc1 [Compound 2-9], the IC50 was 0.48 µM.
CN(CCCCCCCN1C(=O)c2ccc([N+](=O)[O-])cc2C1=O)Cc1ccccc1 [Compound 2-10] gave an IC50 of 1.8 µM.
CCCCN(CCCCN1C(=O)c2ccc([N+](=O)[O-])cc2C1=O)Cc1ccccc1 [Compound 2-11] gave an IC50 of 1.9 µM.
CC(C)N(CCCCCN1C(=O)c2ccc([N+](=O)[O-])cc2C1=O)Cc1ccccc1 [Compound 2-12] was tested, and the IC50 was 0.83 µM.
In the case of CCN(CCCN1C(=O)c2ccc([N+](=O)[O-])cc2C1=O)Cc1ccccc1 [Compound 2-13], the IC50 is reported as 10 µM.
CCN(CCCCCCN1C(=O)c2ccc([N+](=O)[O-])cc2C1=O)Cc1ccccc1 [Compound 2-14] showed an IC50 of 0.66 µM.
In the case of CCN(CCCCCCCN1C(=O)c2ccc([N+](=O)[O-])cc2C1=O)Cc1ccccc1 [Compound 2-15], the IC50 is reported as 4.6 µM.
CCCN(CCCCN1C(=O)c2ccc([N+](=O)[O-])cc2C1=O)Cc1ccccc1 [Compound 2-16] was tested, and the IC50 was 1.9 µM.
CCN(CCCCCN1C(=O)c2ccc([N+](=O)[O-])cc2C1=O)Cc1ccc(C)cc1 [Compound 2-17] showed an IC50 of 0.37 µM.
CCN(CCCCCN1C(=O)c2ccc([N+](=O)[O-])cc2C1=O)Cc1ccc(OC)cc1 [Compound 2-18] showed an IC50 of 0.27 µM.
CCN(CCCCCN1C(=O)c2ccc([N+](=O)[O-])cc2C1=O)Cc1ccc(Cl)cc1 [Compound 2-19] gave an IC50 of 0.24 µM.
Work on CCN(CCCCCN1C(=O)c2ccc([N+](=O)[O-])cc2C1=O)Cc1cccc(Cl)c1 [Compound 2-20] yielded an IC50 of 0.24 µM.
Molecule CCN(CCCCCN1C(=O)c2ccc([N+](=O)[O-])cc2C1=O)Cc1ccccc1Cl [Compound 2-21] has an IC50 of 0.13 µM.
CCN(CCCCCN1C(=O)c2ccc([N+](=O)[O-])cc2C1=O)Cc1ccccc1F [Compound 2-22] gave an IC50 of 0.27 µM.
CCN(CCCCCN1C(=O)c2ccc([N+](=O)[O-])cc2C1=O)Cc1ccccc1C [Compound 2-23] gave an IC50 of 0.11 µM.
CCN(CCCCCN1C(=O)c2ccc([N+](=O)[O-])cc2C1=O)Cc1ccccc1[N+](=O)[O-] [Compound 2-24] showed an IC50 of 0.49 µM.
In the case of CCN(CCCCCN1C(=O)c2ccc([N+](=O)[O-])cc2C1=O)Cc1ccccc1OC [Compound 2-25], the IC50 is reported as 0.028 µM.
With CCN(CCCCCN1C(=O)c2ccc([N+](=O)[O-])cc2C1=O)Cc1cccc(OC)c1 [Compound 2-26] the IC50 was 0.045 µM.
For CCN(CCCCCN1C(=O)c2ccc([N+](=O)[O-])cc2C1=O)Cc1cccc(OC)c1OC [Compound 2-27], the IC50 was 0.27 µM.
Work on CCN(CCCCCN1C(=O)c2ccc([N+](=O)[O-])cc2C1=O)Cc1cccc2ccccc12 [Compound 2-28] yielded an IC50 of 0.11 µM.
CN(CCCCN1C(=O)c2ccc(N)cc2C1=O)Cc1ccccc1 [Compound 3, 5-Amino-2-[4-(N-benzyl-N-methyl)aminobutyl]-1H-isoindole-1,3(2H)-dione hydrochloride] was tested, and the IC50 was 34 µM.
With CN(CCCCN1C(=O)c2ccc(NC(=O)c3ccccc3)cc2C1=O)Cc1ccccc1 [Compound 4, 2-[4-(N-Benzyl-N-methyl)aminobutyl]-5-benzoylamino-1H-isoindole-1,3(2H)-dione] the IC50 was 11 µM.
CC(=O)Nc1ccc2c(c1)C(=O)N(CCCCN(C)Cc1ccccc1)C2=O [Compound 5-1] gave an IC50 of 11 µM.
Cc1ccc(S(=O)(=O)Nc2ccc3c(c2)C(=O)N(CCCCN(C)Cc2ccccc2)C3=O)cc1 [Compound 5-2] was tested, and the IC50 was 37 µM.
Molecule CN(CCCCN1C(=O)c2ccc(NS(=O)(=O)Cc3ccccc3)cc2C1=O)Cc1ccccc1 [Compound 5-3] has an IC50 of 9.2 µM.
Molecule O=C1c2ccc([N+](=O)[O-])cc2C(=O)N1CCCCNCc1cccc2ccccc12 [Compound 8-2] has an IC50 of 2.9 µM.
CN(CCCCNC(=O)/C=C/c1ccc([N+](=O)[O-])cc1)Cc1ccccc1 [Compound 9, (E)-N-[4-(N-Methyl-N-benzyl)aminobutyl]-3-(4-nitrophenyl)-2-propenamide] gave an IC50 of 14 µM.
CCN(CCCCCN1C(=O)c2ccc(N)cc2C1=O)Cc1ccccc1 [Compound 10, 5-Amino-2-[5-(N-benzyl-N-ethyl)aminopentyl]-1H -isoindole-1,3(2H)-dione dihydrochloride] gave an IC50 of 1.2 µM.
CCN(CCCCCN1C(=O)c2ccc(NC(=O)c3ccccc3)cc2C1=O)Cc1ccccc1 [Compound 11-2] showed an IC50 of 0.73 µM.
CCN(CCCCCN1C(=O)c2ccc(NC(=O)Cc3ccccc3)cc2C1=O)Cc1ccccc1 [Compound 11-3] showed an IC50 of 1.5 µM.
Work on CCN(CCCCCN1C(=O)c2ccc(NS(=O)(=O)c3ccc(C)cc3)cc2C1=O)Cc1ccccc1 [Compound 11-4] yielded an IC50 of 2.2 µM.
CCN(CCCCCN1C(=O)c2ccc(NS(=O)(=O)Cc3ccccc3)cc2C1=O)Cc1ccccc1 [Compound 11-5] showed an IC50 of 0.24 µM.
For CCN(CCCCCN1C(=O)c2ccc(NS(C)(=O)=O)cc2C1=O)Cc1ccccc1 [Compound 11-6], the IC50 was 0.47 µM.
CCN(CCCCCN1C(=O)c2cccc([N+](=O)[O-])c2C1=O)Cc1ccccc1 [Compound 12-3] showed an IC50 of 0.68 µM.
CCN(CCCCCN1C(=O)c2ccc(O)cc2C1=O)Cc1ccccc1 [Compound 12-4] was tested, and the IC50 was 2.5 µM.
Work on CCN(CCCCCN1C(=O)c2ccc(OC(C)=O)cc2C1=O)Cc1ccccc1 [Compound 12-5] yielded an IC50 of 2.1 µM.
In the case of CCN(CCCCCN1C(=O)c2ccc(OC)cc2C1=O)Cc1ccccc1 [Compound 12-6], the IC50 is reported as 0.71 µM.
CCN(CCCCCN1C(=O)c2ccc(Cl)cc2C1=O)Cc1ccccc1 [Compound 12-7] gave an IC50 of 1.3 µM.
In the case of CCN(CCCCCN1C(=O)c2ccc(C(=O)O)cc2C1=O)Cc1ccccc1 [Compound 12-8, 2-[5-(N-benzyl-N-ethyl)aminopentyl]-1,3-dioxo-1H-isoindole-5-carboxylic acid hydrochloride], the IC50 is reported as 8.8 µM.
Molecule CCN(CCCCCN1C(=O)c2ccc(C(=O)N(CC)CC)cc2C1=O)Cc1ccccc1 [Compound 12-9] has an IC50 of 0.98 µM.
For CCN(CCCCCN1C(=O)c2ccc(C(=O)c3ccccc3)cc2C1=O)Cc1ccccc1 [Compound 12-10], the IC50 was 1.1 µM.
CCN(CCCCCN1C(=O)c2ccc(C)cc2C1=O)Cc1ccccc1 [Compound 12-11] showed an IC50 of 1.8 µM.
For CCN(CCCCCN1C(=O)c2ccc(OS(C)(=O)=O)cc2C1=O)Cc1ccccc1 [Compound 12-12], the IC50 was 0.38 µM.
In the case of CCN(CCCCCN1C(=O)c2ccc(C(=O)NC)cc2C1=O)Cc1ccccc1 [Compound 12-13], the IC50 is reported as 0.38 µM.
CCN(CCCCCN1C(=O)c2ccc(C(=O)OC)cc2C1=O)Cc1ccccc1 [Compound 13, Methyl 2-[5-(N-benzyl-N-ethyl)aminopentyl]-1,3(2H)-dioxo-1H-isoindole-5-carboxylate hydrochloride] gave an IC50 of 0.58 µM.
Molecule CN(CCCCNC(=O)/C=C/c1cccc([N+](=O)[O-])c1)Cc1ccccc1 [Compound 14-1] has an IC50 of 13 µM.
Molecule CN(CCCCNC(=O)/C=C/c1ccccc1[N+](=O)[O-])Cc1ccccc1 [Compound 14-2] has an IC50 of 18 µM.
CCN(CCCNC(=O)/C=C/c1ccc([N+](=O)[O-])cc1)Cc1ccccc1 [Compound 14-9] gave an IC50 of 11 µM.
Molecule CCN(CCCCCCCNC(=O)/C=C/c1ccc([N+](=O)[O-])cc1)Cc1ccccc1 [Compound 14-10] has an IC50 of 15 µM.
With CCN(CCCCCNC(=O)/C=C/c1ccc(OC)c(OC)c1)Cc1ccccc1 [Compound 14-11] the IC50 was 5.4 µM.
Work on CCN(CCCCCNC(=O)/C=C/c1ccccc1[N+](=O)[O-])Cc1ccccc1 [Compound 14-12] yielded an IC50 of 3.9 µM.
Molecule CCN(CCCCCNC(=O)/C=C/c1cccc([N+](=O)[O-])c1)Cc1ccccc1 [Compound 14-13] has an IC50 of 3 µM.
In the case of CCN(CCCCCNC(=O)/C=C/c1ccc(Cl)cc1)Cc1ccccc1 [Compound 14-14], the IC50 is reported as 16 µM.
With CCN(CCCCCNC(=O)/C=C/c1ccc(C)cc1)Cc1ccccc1 [Compound 14-15] the IC50 was 16 µM.
Molecule CCN(CCCCCNC(=O)/C=C/c1ccc(C#N)cc1)Cc1ccccc1 [Compound 14-16] has an IC50 of 5 µM.
Molecule CCN(CCCCCNC(=O)/C=C/c1ccc(O)cc1)Cc1ccccc1 [Compound 14-17] has an IC50 of 13 µM.
Work on CCN(CCCCCNC(=O)/C=C/c1ccc(OC)cc1)Cc1ccccc1 [Compound 14-18] yielded an IC50 of 16 µM.
Molecule CCN(CCCCCNC(=O)/C=C/c1cccc(OC)c1)Cc1ccccc1 [Compound 14-19] has an IC50 of 9.3 µM.
Work on CCN(CCCCCNC(=O)/C=C/c1ccc(SC)cc1)Cc1ccccc1 [Compound 14-20] yielded an IC50 of 21 µM.
Work on CCN(CCCCCNC(=O)/C=C/c1ccc([S+](C)[O-])cc1)Cc1ccccc1 (stereo not shown) [Compound 14-21] yielded an IC50 of 7.5 µM.
Work on CCN(CCCCCNC(=O)/C=C/c1ccc(S(C)(=O)=O)cc1)Cc1ccccc1 [Compound 14-22] yielded an IC50 of 3.2 µM.
CCN(CCCCCNC(=O)/C=C/c1cc(OC)c(OC)c(OC)c1)Cc1ccccc1 [Compound 14-23] was tested, and the IC50 was 4.1 µM.
CCN(CCCCCNC(=O)/C=C/c1ccc([N+](=O)[O-])c(O)c1)Cc1ccccc1 [Compound 14-24] gave an IC50 of 0.17 µM.
With CCN(CCCCCNC(=O)/C=C/c1ccc(Cl)c([N+](=O)[O-])c1)Cc1ccccc1 [Compound 14-25] the IC50 was 1.9 µM.

Source: patent US5025033A, “Alkylene diamines” (Takeda Chemical Industries, Ltd., priority 1988, dated 1991)
